The test system of the assay is MDA-MB-231 breast cancer bone metastases. Put plainly: Histology / immunofluorescence of experimental breast cancer bone metastases. The format is in vivo, nude rats (RNU strain). Particulars: after 4 weeks treatment with cilengitide; control rats 8.8 μm; p<0.01. How it is done:
At the end of the observation period lower limbs of each animal are amputated and muscular tissue removed. Bones with surrounding soft tissue tumors are stored in 70% ethanol and embedded in a methylmethacrylat-based compound (Technovit® 9100 NEU, Heraeus Kulzer, Hanau, Germany) according to the instructions of the manufacturer. 5 μm-thick sections are cut (Microm HM340e microtome; Thermo Scientific, Waltham, Mass.), mounted on SuperFrost Plus microscope slides and dried overnight at 60° C. Additional freshly removed soft tissue tumors are embedded in optimum cutting temperature compound (OCT, TissueTec, Sakura, Japan) and stored at −80° C. […] Mean positive area fractions of SMA and collagen IV (in percent) as well as mean vessel diameters (in μm) are determined from 4 representative animals of each group analyzing 10 fields of view chosen randomly from each rat using Analysis Software (cell^F; Olympus Soft Imaging Solutions, Münster, Germany). […]
For light microscopical analysis, sections are stained with Mayer's hematoxylin (Carl Roth, Karlsruhe, Germany) and eosin (Merck, Darmstadt, Germany), mounted using Eukitt mounting medium (O. Kindler, Freiburg, Germany) and analyzed using a microscope (DM LB; Leica, Wetzlar, Germany) equipped with a digital camera (DFC 320; Leica, Wetzlar, Germany). […]

With `CC(C)[C@H]1C(=O)N[C@@H](CCCN=C(N)N)C(=O)NCC(=O)N[C@@H](CC(=O)O)C(=O)N[C@H](Cc2ccccc2)C(=O)N1C` [Cilengitide, cyclo-(Arg-Gly-Asp-DPhe-NMeVal)], the “mean vessel diameter in bone metastases” value was found to be 6.6 μm.

The values are drawn from US9220771B2, “Peptide for use in the treatment of breast cancer and/or bone metastases” (MERCK PATENT GMBH, priority 2010, dated 2015).
